Structures are written as SMILES.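 Test compounds were applied to cells in 96-well plates for 48 hours at 5 doses. The concentration for full growth arrest is given as TGI.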

Among the test systems are HL-60(TB) leukemia; MDA-MB-231 breast; NCI-H522 lung; NCI/ADR-RES ovarian; SK-OV-3 ovarian; SNB-19 CNS; SR leukemia; UACC-257 melanoma.
Holding throughout (experiment): NCI-60 cell line screen, 48 h

For `CC(=O)NC1C(OCc2ccccc2)OC(CO)C(O)C1OCC(=O)N[C@@H](C)C(=O)N[C@H](CCC(=O)NCCCNc1ccc([N+](=O)[O-])c2[nH]c3ccccc3c(=O)c12)C(N)=O` (stereo not given in full), the TGI with HL-60(TB) leukemia, in the assay on MDA-MB-231 breast, in the assay with NCI-H522 lung, with NCI/ADR-RES ovarian, in the assay with SK-OV-3 ovarian and in the assay with SNB-19 CNS was above 100 µM throughout. Further, the TGI in the assay with SR leukemia and in the assay with UACC-257 melanoma was above 100 µM each time.
Regarding `COc1ccc2c(c1)CCC/C2=N\NS(=O)(=O)c1c(C)cc(C)cc1C`, the TGI in the assay with MDA-MB-231 breast is above 100 µM; in the assay on NCI/ADR-RES ovarian, 59.9 µM; in the assay on SNB-19 CNS, above 100 µM; in the assay with SR leukemia, 49.5 µM; in the assay on UACC-257 melanoma, above 100 µM.
For the molecule `CC(C)(C)C1=C(Br)C(OC(=O)C(F)(F)F)(C(C)(C)C)OP1(=O)c1ccccc1` (stereo not given), the TGI in the assay on HL-60(TB) leukemia, with NCI-H522 lung, in the assay with NCI/ADR-RES ovarian, in the assay on SK-OV-3 ovarian, in the assay with SNB-19 CNS and in the assay with UACC-257 melanoma was above 100 µM throughout.
Consider `O=c1[nH]c2ccc([N+](=O)[O-])cc2nc1/C=C(\O)c1ccccc1`, for which the TGI was 15.3 µM in the assay on MDA-MB-231 breast; 34.6 µM with NCI-H522 lung; 81.5 µM with NCI/ADR-RES ovarian; 33.7 µM in the assay with SK-OV-3 ovarian; 31.8 µM with SNB-19 CNS; above 100 µM in the assay with SR leukemia. In the assay on UACC-257 melanoma, this molecule displayed a TGI above 100 µM.
Consider `Nc1cc2c3c(cccc3c1)C(=O)N(c1ccc(OCCN3CCCC3)cc1)C2=O`, for which the TGI is 57.1 µM in the assay on MDA-MB-231 breast; 30.7 µM with NCI-H522 lung; above 57 µM with NCI/ADR-RES ovarian; 42 µM with SK-OV-3 ovarian; 41.9 µM in the assay with SNB-19 CNS; 50.9 µM in the assay with SR leukemia. In the assay with UACC-257 melanoma, this molecule gave a TGI of 31.5 µM.
Consider `NN/C(=N\S(=O)(=O)c1ccc(S(=O)(=O)c2ccccc2)s1)Nc1ccc(Cl)cc1`, for which the TGI is 62.2 µM in the assay on HL-60(TB) leukemia; above 100 µM with MDA-MB-231 breast; above 100 µM with NCI/ADR-RES ovarian; above 100 µM with SK-OV-3 ovarian; above 100 µM in the assay on SNB-19 CNS; 44 µM in the assay on SR leukemia. Moreover, the TGI in the assay on UACC-257 melanoma is 67.5 µM.
With `CC(NC(=O)C(Cc1ccc(OC(=O)c2ccccc2)cc1)NC(=O)OC(C)(C)C)C(=O)NCC(=O)NC(Cc1ccccc1)C(=O)NN` (stereo not given), the TGI was 41.5 µM with HL-60(TB) leukemia; above 100 µM with MDA-MB-231 breast; above 100 µM in the assay with NCI-H522 lung; above 100 µM in the assay with NCI/ADR-RES ovarian; above 100 µM with SK-OV-3 ovarian; above 100 µM in the assay on SNB-19 CNS. Also, in the assay with SR leukemia, the TGI worked out at 56.9 µM.
`O=C1C=C(N2CCN(CCOCCO)CC2)C(=O)c2c(O)ccc(O)c21`: the TGI in the assay on HL-60(TB) leukemia was above 29.2 µM; in the assay with MDA-MB-231 breast, 21.8 µM; in the assay with NCI-H522 lung, 5.75 µM; in the assay with NCI/ADR-RES ovarian, 10.4 µM; with SK-OV-3 ovarian, 38.8 µM; in the assay on SNB-19 CNS, 33.7 µM. Moreover, the TGI in the assay on UACC-257 melanoma came out at 3.11 µM.
Take `CCOC(=O)/C=C/[C@@H](CC)O[Si](C(C)C)(C(C)C)C(C)C`: the TGI in the assay on MDA-MB-231 breast, in the assay with NCI-H522 lung, in the assay with NCI/ADR-RES ovarian, with SK-OV-3 ovarian, in the assay on SNB-19 CNS and in the assay with SR leukemia was above 100 µM throughout. In addition, in the assay on UACC-257 melanoma, the TGI was above 100 µM.
With `COC(=O)c1ccc(NCC2=C(Br)C(=O)C=CC2=O)cc1Cl`, the TGI in the assay on HL-60(TB) leukemia was above 100 µM; with MDA-MB-231 breast, 34.8 µM; in the assay with NCI-H522 lung, 21.2 µM; in the assay with NCI/ADR-RES ovarian, 75.4 µM; in the assay on SK-OV-3 ovarian, above 100 µM; in the assay on SNB-19 CNS it was above 100 µM. Besides, in the assay with UACC-257 melanoma, the TGI came out at 72.2 µM.
Consider `CCn1c2ccccc2c2cc(Nc3cc(C)[nH]c(=O)n3)ccc21`, for which the TGI with MDA-MB-231 breast, in the assay with NCI-H522 lung, in the assay with NCI/ADR-RES ovarian, in the assay on SK-OV-3 ovarian, in the assay on SNB-19 CNS and in the assay on UACC-257 melanoma was above 100 µM in each case.
Turning to `Cc1ccc(S(=O)(=O)Nn2c(O)c(C#N)c(-c3ccc([N+](=O)[O-])cc3)c(C#N)c2=O)cc1`, the TGI with HL-60(TB) leukemia, with MDA-MB-231 breast, with NCI-H522 lung, with NCI/ADR-RES ovarian, in the assay on SK-OV-3 ovarian and with SNB-19 CNS was above 100 µM throughout. Further, in the assay on UACC-257 melanoma, the TGI was above 100 µM.
On to `COc1ccc(-n2cnc3c(NC(Cc4ccccc4)C(=O)O)ncnc32)cc1` (stereo not given), for which the TGI with MDA-MB-231 breast, in the assay on NCI/ADR-RES ovarian, with SK-OV-3 ovarian, with SR leukemia and with UACC-257 melanoma was above 100 µM each time.
On to `FC(F)(F)c1ccc2nc(Sc3ccc4ccccc4c3)cnc2c1`, for which the TGI with HL-60(TB) leukemia, in the assay on MDA-MB-231 breast, in the assay on NCI-H522 lung, in the assay on NCI/ADR-RES ovarian, in the assay with SK-OV-3 ovarian and with SNB-19 CNS was above 100 µM in each case. The TGI in the assay with UACC-257 melanoma was above 100 µM.
`CN1CCC2(CC1)C(=NC1CCCCC1)NC(=O)N2c1ccccc1`: the TGI in the assay on HL-60(TB) leukemia, in the assay with MDA-MB-231 breast, with NCI/ADR-RES ovarian, in the assay on SK-OV-3 ovarian, with SNB-19 CNS and in the assay with SR leukemia was above 100 µM throughout. This molecule also showed a TGI with UACC-257 melanoma above 100 µM.
For the molecule `O=c1cc(N2CCCC2)[nH]c(=O)n1-c1ccc(Cl)cc1`, the TGI in the assay on HL-60(TB) leukemia, in the assay on MDA-MB-231 breast, with NCI-H522 lung, in the assay with NCI/ADR-RES ovarian, with SK-OV-3 ovarian and in the assay with SNB-19 CNS was above 100 µM each time. For the same molecule, the TGI with UACC-257 melanoma is above 100 µM.
Consider `Cc1ccccc1NC(=O)Cc1csc(N=Nc2c(O)[nH]c3ccccc23)n1`, for which the TGI is 62.1 µM in the assay with HL-60(TB) leukemia; above 100 µM with MDA-MB-231 breast; 41.2 µM in the assay on NCI-H522 lung; above 100 µM in the assay on NCI/ADR-RES ovarian; above 100 µM with SNB-19 CNS; above 100 µM in the assay on UACC-257 melanoma.
As to `C=CC[C@H](N=C(SC)SC)C(=O)N1C(=O)N(C)[C@@H](C)[C@H]1c1ccccc1`, the TGI in the assay with HL-60(TB) leukemia is above 100 µM; in the assay on MDA-MB-231 breast, above 100 µM; in the assay on NCI-H522 lung, 54.1 µM; with NCI/ADR-RES ovarian, above 100 µM; in the assay with SK-OV-3 ovarian, above 100 µM; in the assay on SNB-19 CNS it was above 100 µM. Further, the TGI with UACC-257 melanoma was above 100 µM.

Values taken from PubChem BioAssay (NCI).
